# Experiments:
# TNFα expression = assay: Whole blood treated with Vedolizumab, LPA or combination; TNFα expression by qPCR; type: cell-based, human; conditions: whole blood from healthy donors, 3 hours at 37 degrees, Vedolizumab 600 μg/ml, LPA 1 μM, fold-induction over untreated control
# Description: FIGS. 11A-B: […] synergistic effect between Vedolizumab and LPA in-Vitro. (11A-B) Bar charts showing inflammatory cytokine expression including (11A) TNFα and (11B) IL-1β post incubation with Vedolizumab (600 μg/ml), LPA (1 μM) and co-incubation of the two substances, using qPCR for quantification. Un-treated whole blood basal expression served as control and values were expressed as fold-induction over control. Data were pooled from three independent experiments. Significance was calculated using Wilcoxon-test (two-sided; μ=1)
# The combined effect of Vedolizumab and LPA was next tested on blood cells. Whole blood from healthy donors was treated with Vedolizumab, LPA or a combination for 3 hours at 37 degrees and pro-inflammatory cytokine expression was measured. Untreated whole blood was used as a control. […] This may be due to the fact that there are 6 LPA receptors and it appears that antagonism of only one of them is not sufficient to completely counter act the effect of the LPA.
# [1] = tested on: Tregs in intestinal tissue; assay: Estimated Treg proportion scores in intestinal tissue by xCell deconvolution of public dataset GEO73661; type: in vivo, human; conditions: post-treatment vs baseline, xCell estimate from GEO73661
# Description: Deconvolved estimated Tregs proportion scores in intestinal tissue and peripheral blood at baseline and in different time points post-treatment in responding and non-responding patients were evaluated usind xCell.
# xCell, which is a computational deconvolution method based on ssGSEA enrichment of cell specific signatures for estimation of abundance scores of immune cell types from the gene expression data, was used. Only cells that had non-zero values in at least 75% of the samples were included.
# Estimated cell proportions in intestinal tissue were tested using a publicly available dataset (GEO73661). […] Although Treg accumulation is observed in blood of non-responders, tissue Tregs are not reduced.
# IBD (UC and CD) patients = assay: Primary clinical response to Vedolizumab in IBD patients, cohort 1; type: in vivo, human; conditions: number of patients with 0—None / 1—partial / 2—full response; for clinical 2 w (0/1/2): 2 weeks; for clinical 14 w (0/1/2): 14 weeks; for clinical 26 w (0/1/2): 26 weeks; for clinical 52 w (0/1/2): 52 weeks
# Excerpt: The exploratory study cohort consisted of 73 whole blood samples from 22 IBD (UC and CD) patients, who received Vedolizumab treatment at the Rambam Health Care Campus (RHCC) and met the study inclusion criteria. Patients that had past exposure to Vedolizumab, or patients who had active infection including febrile diseases or intra-abdominal or perianal abscess were excluded.
# Samples were collected at the following time-points: pretreatment, 2 weeks and 14 weeks post first treatment and following one year of treatment for those patients who received long-term care. Patients were classified for response by clinical score after one-year follow-up and were clinically characterized as detailed in table 2.
Substance,TNFα expression (TNFα expression),Tregs frequency in intestinal tissue ([1]; non-responders),Tregs frequency in intestinal tissue ([1]; responding patients),clinical 2 w (0/1/2) (IBD (UC and CD) patients; Non-responders (n = 10)),clinical 14 w (0/1/2) (IBD (UC and CD) patients; Non-responders (n = 10)),clinical 26 w (0/1/2) (IBD (UC and CD) patients; Non-responders (n = 10)),clinical 52 w (0/1/2) (IBD (UC and CD) patients; Non-responders (n = 10)),clinical 2 w (0/1/2) (IBD (UC and CD) patients; Responders (n = 12)),clinical 14 w (0/1/2) (IBD (UC and CD) patients; Responders (n = 12)),clinical 26 w (0/1/2) (IBD (UC and CD) patients; Responders (n = 12)),clinical 52 w (0/1/2) (IBD (UC and CD) patients; Responders (n = 12))
Vedolizumab,neither Vedolizumab nor LPA alone had an effect,unaffected,reduces Tregs frequency,5/5/0,7/2/1,8/2/0,10/0/0,1/7/0,1/5/2,0/4/5,0/0/12
lysophosphatidic acid [LPA],neither Vedolizumab nor LPA alone had an effect,–,–,–,–,–,–,–,–,–,–

# — US20210262032A1, “DETERMINING RESPONDERS TO INFLAMMATION TREATMENT” (RAMBAM MED-TECH LTD., priority 2018, published 2021)
